Structures are written as SMILES. Read-outs that look alike come from different tables or passages of the source.

From US9018213B2, “Alicyclic[c] benzopyrone derivatives and uses thereof” (Huazhong University of Science & Technology, priority 2011, dated 2015) come the findings set out here.

The target in one series is 5HT2A receptor (Rattus norvegicus (Rat), UniProt P14842). Briefly: 5HT2A receptor binding assay ([3H]-Ketanserin). The conditions noted are these: read-out: 5HT2A inhibition %.
The target in a further series is 5HT1A receptor (Rattus norvegicus (Rat), UniProt P19327). Briefly: 5HT1A receptor binding assay (3H-8-OH-DPAT). The conditions noted are these: test compound final concentration 10^-5 M. The protocol:
Preparation of 5HT1A Membrane
Incubation at 37° C. was conducted for 10 min, the weight of the tubes were adjusted using a balance after incubation. […] Centrifugation was conducted and repeated 3 times.
Materials for the Receptor Binding Assay

The target in the next series is D2 receptor (Rattus norvegicus (Rat), UniProt P61169). The series can be described thus: D2 receptor inhibition binding assay (3H-Spiperone). The conditions noted are these: read-out: D2 inhibition %.
D2 receptor, sequence (P61169 whole entry): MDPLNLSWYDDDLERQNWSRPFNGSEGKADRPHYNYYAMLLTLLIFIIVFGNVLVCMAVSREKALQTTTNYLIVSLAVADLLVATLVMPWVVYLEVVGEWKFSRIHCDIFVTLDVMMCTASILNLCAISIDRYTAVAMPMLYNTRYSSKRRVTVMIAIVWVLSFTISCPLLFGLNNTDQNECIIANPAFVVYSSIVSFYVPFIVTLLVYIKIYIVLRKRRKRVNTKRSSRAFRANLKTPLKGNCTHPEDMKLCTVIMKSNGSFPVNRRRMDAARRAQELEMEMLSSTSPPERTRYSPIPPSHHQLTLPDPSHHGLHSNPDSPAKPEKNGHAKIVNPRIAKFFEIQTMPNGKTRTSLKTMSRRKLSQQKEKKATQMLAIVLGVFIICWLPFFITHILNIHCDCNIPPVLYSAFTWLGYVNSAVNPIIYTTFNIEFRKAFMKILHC
Series [1] in a line: in vivo. The following applies: both, Kunming (KM), mouse, po. The protocol:
Healthy mice of Kunming breed (with half male and half female, (22±2) g) were provided by Qinglongshan Animal Cultivation Center, Nanjing.
The durations for the mice to maintain the posture with the two forepaws on the bars were recorded, and 30 s of spasticity without moving was considered as the positive response. In the case the forepaws of the mice were not put down persistently, the observation was terminated at 60 s. The numbers of animals with positive response in each of the compound dosage groups were counted.

A short description of series [2]: in vivo. The conditions noted are these: both sexes, KM, mouse, in vivo, po. The protocol:
Limit Test of Sequential Assay
KM mice (half male and half female) were randomly divided into several groups (with 2-5 mice in each group), which were respectively the 2000 mg/kg groups for each compound, and the solvent group. 0.2 ml/10 g were administered intragastrically. The death of the animals in 3 days were observed. (In the case 3 or more animals survived in 3 days without notable abnormity in their life states, the observation was continued until the assay was completed in 7 days. In the case 3 or more animals died in 3 days, the median lethal dose method was used to determine the LD50).
Pre-Assay for the Median Lethal Dose Method
0.2 ml/10 g were administered intragastrically, and the death of the animals in 1-3 days were observed.

The next series concerns mice of Kunming breed. Briefly: MK-801 induced high activity. The following applies: Mus musculus; po, mice. The class given is in vivo. The protocol:
Healthy mice of Kunming breed (with half male and half female, (20±2) g) were provided by Qinglongshan Animal Cultivation Center, Nanjing.
Ascorbic acid was provided by Sinopharm Chemical Reagent Co. Ltd.
Tween 80, with the concentration of 10%.
Subsequently, the spontaneous activities of the mice of each group in 90 min were measured.

A further series relates to KM mice. Briefly: Apomorphine induced clambering assay of mice. The series is classed as in vivo. The following applies: for ED50: Mus musculus, po, read-out: apomorphine induced clambering ED50; for Scoring (value), apomorphine induced clambering: x ± s, n = 10. The protocol:
Apomorphine Induced Clambering Assay of Mice
Healthy KM mice (male, with body weight of 18-22 g) were provided by Qinglongshan Animal Cultivation Center, Nanjing.
Apomorphine provided by Sigma Company was dissolved in 0.9% NaCl (containing 0.1% vitamin C) before use, and was freshly formulated before use.
Vitamin C, F20061113, was provided by Sinopharm Chemical Reagent Co. Ltd.
Sodium chloride injection, H32026305, was provided by Xuzhou No. 5 Pharmaceutical Factory Co. Ltd.
Instruments: self-made clambering cage, chronograph.
Procedures: apomorphine induced clambering assay of mice
After 5 min of adaptation, the behaviors of the mice at 10-11, 20-21, and 30-31 min after the injection of apomorphine were observed and scored. Scoring criteria: 4 paws on the floor was scored as 0; 2 forepaws on the cage was scored as 1; and 4 paws on the cage was scored as 2.

5HT2A receptor, sequence (P14842 whole entry): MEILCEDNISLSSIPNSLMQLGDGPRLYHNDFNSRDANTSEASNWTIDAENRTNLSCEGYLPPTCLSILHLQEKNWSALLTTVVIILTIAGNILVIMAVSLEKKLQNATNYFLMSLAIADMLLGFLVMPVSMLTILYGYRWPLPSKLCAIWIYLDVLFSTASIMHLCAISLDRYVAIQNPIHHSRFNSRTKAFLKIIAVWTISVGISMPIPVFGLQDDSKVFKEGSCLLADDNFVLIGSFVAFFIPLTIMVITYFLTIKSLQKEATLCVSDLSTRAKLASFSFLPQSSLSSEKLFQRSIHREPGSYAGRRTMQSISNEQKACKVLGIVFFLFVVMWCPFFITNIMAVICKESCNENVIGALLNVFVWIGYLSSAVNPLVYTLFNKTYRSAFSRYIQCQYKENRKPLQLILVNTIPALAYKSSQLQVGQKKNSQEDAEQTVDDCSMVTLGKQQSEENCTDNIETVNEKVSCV
5HT1A receptor, sequence (P19327 whole entry): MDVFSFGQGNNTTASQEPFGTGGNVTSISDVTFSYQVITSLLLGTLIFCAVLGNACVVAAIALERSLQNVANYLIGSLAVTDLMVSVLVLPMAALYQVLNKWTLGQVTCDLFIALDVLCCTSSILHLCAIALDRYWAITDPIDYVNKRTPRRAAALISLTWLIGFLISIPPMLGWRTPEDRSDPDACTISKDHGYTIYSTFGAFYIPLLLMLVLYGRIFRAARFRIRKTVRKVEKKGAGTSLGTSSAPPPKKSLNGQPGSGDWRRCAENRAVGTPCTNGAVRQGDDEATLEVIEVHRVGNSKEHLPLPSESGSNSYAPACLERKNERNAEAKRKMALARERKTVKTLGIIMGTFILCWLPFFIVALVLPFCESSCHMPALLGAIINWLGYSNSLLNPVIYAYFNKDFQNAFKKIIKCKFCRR
Description for D2 receptor: Rats were sacrificed by cervical dislocation on ice. Cerebral cortex was rapidly taken, and 2 cerebral cortexes were combined into a centrifuge tube, to which 3 ml of buffer (0.05 M Tris-HCl buffer, containing NaCl 120 mM, KCl 5 mM, MgCl2 1 mM, CaCl2 1 mM) was added, homogenization was conducted for 3-4 s at level 4 for four times, and then 5 ml of buffer was then added. The weight of the homogenized tubes were adjusted using a balance, and centrifugation was conducted at 12000 r, 4° C. for 20 min. The supernatant was discarded, and 3 ml of B solution was added. Vortex mixer was used for blending, and then 5 ml of B solution was added. Centrifugation was conducted and repeated 3 times. After the centrifugations, the supernatant was discarded, and the pellets were stored at −80° C. for future use.
Beckman LS-6500 Multi-function Liquid Scintillation Counter was used.
(1) The prepared membrane was first applied with appropriate amount of homogenized liquid, and homogenizer was used for evenly dispersing. 15 tubes were mixed into a 100 ml container, and appropriate amount of homogenized liquid was added to give 50 ml of membrane suspension, which was reserved for future use.
(2) 100 μL of membrane preparation and 100 μL of buffer were added into each reaction tube.
(3) 100 μL of homogenized liquid was added into the total binding tube (TB), 100 μL of Butaclamol (final concentration 10^−5 M) was added into the non-specific binding tube (NB), and 100 μL of the test compound (final concentration 10^−5 M) was added into the specific binding tube (SB) for each compound.
(5) Each of the reaction tubes was incubated at 37° C. for 20 min. After the reaction was completed, the bound ligands were rapidly filtered under reduced pressure, and the ice-chilled assay buffer was used for adequate washing. The filter was taken out and put into a 3 ml scintillation vial, and 2 ml of toluene scintillation solution was added and blended.
(6) The scintillation vials were put into Liquid Scintillation Counter for counting. Inhibitory rate (I %)=(Total binding tube cpm−compound cpm)/(Total binding tube cpm−non-specific binding tube cpm)×100%
Each assay for the compounds was conducted in duplicate.

As for `Cc1cccc(N2CCN(CCCOc3ccc4c5c(c(=O)oc4c3)CCC5)CC2)c1C` [Compound 1, 7-{3-[4-(2,3-dimethylphenyl)piperazin-1-yl]-propoxy}-2,3-dihydro-1H-cyclopenteno[c]benzopyran-4-one], the inhibition at 10 µM is 82.9% at 5HT2A receptor, 103% at 5HT1A receptor and 3.3% at D2 receptor.
For the compound `O=c1oc2cc(OCCCN3CCN(c4cccc(Cl)c4Cl)CC3)ccc2c2c1CCC2` [Compound 2, 7-{3-[4-(2,3-dichlorophenyl)piperazin-1-yl]-propoxy}-2,3-dihydro-1H-cyclopenteno[c]benzopyran-4-one], the inhibition at 10 µM worked out at 14.3% on 5HT2A receptor, 65.8% on 5HT1A receptor and 11.5% at D2 receptor.
As for `O=c1oc2cc(OCCCN3CCN(c4cccc(C(F)(F)F)c4)CC3)ccc2c2c1CCC2` [Compound 3, 7-{3-[4-(3-trifluoromethylphenyl)piperazin-1-yl]-propoxy}-2,3-dihydro-1H-cyclopenteno[c]benzopyran-4-one], the inhibition at 10 µM at 5HT2A receptor stood at 62.2%; at 5HT1A receptor, 104%; on D2 receptor, 17.2%.
For `COc1ccccc1N1CCN(CCCOc2ccc3c4c(c(=O)oc3c2)CCC4)CC1` [Compound 4, 7-{3-[4-(2-methoxyphenyl)piperazin-1-yl]-propoxy}-2,3-dihydro-1H-cyclopenteno[c]benzopyran-4-one] the same measures were 112%, 116% and 50.2%.
As to `COc1ccccc1N1CCN(CCCOc2ccc3c4c(c(=O)oc3c2C)CCC4)CC1` [Compound 6, 7-{3-[4-(2-methoxyphenyl)piperazin-1-yl]-propoxy}-6-methyl-2,3-dihydro-1H-cyclopenteno[c]benzopyran-4-one], the inhibition at 10 µM at 5HT2A receptor was 75.4%; at 5HT1A receptor, 95.5%; on D2 receptor it was 4.7%.
Take `COc1ccc(N2CCN(CCCCOc3ccc4c5c(c(=O)oc4c3)CCC5)CC2)cc1` [Compound 8, 7-{4-[4-(4-methoxyphenyl)piperazin-1-yl]-butoxy}-2,3-dihydro-1H-cyclopenteno[c]benzopyran-4-one]: the inhibition at 10 µM was 23.4% at 5HT2A receptor, 62.8% on 5HT1A receptor and 26.4% on D2 receptor.
For `O=c1oc2cc(OCCCCN3CCN(c4ccc(F)cc4)CC3)ccc2c2c1CCC2` [Compound 9, 7-{4-[4-(4-fluorophenyl)piperazin-1-yl]-butoxy}-2,3-dihydro-1H-cyclopenteno[c]benzopyran-4-one] the same measures were 119%, 104% and 15.2%.
As for `O=c1oc2cc(OCCCCN3CCC(c4noc5cc(F)ccc45)CC3)ccc2c2c1CCC2` [Compound 10, 7-{4-[4-(3-(6-fluoro-benzisoxazole)-1-piperidyl)-butoxy]}-2,3-dihydro-1H-cyclopenteno[c]benzopyran-4-one], the results for the inhibition at 10 µM at 5HT2A receptor, at 5HT1A receptor and on D2 receptor were 68.4%, 42.5% and 5.7%, respectively.
In the same order, the values of `COc1ccccc1N1CCN(CCCCOc2ccc3c4c(c(=O)oc3c2C)CCC4)CC1` [Compound 11, 7-{4-[4-(2-methoxyphenyl)piperazin-1-yl]-butoxy}-6-methyl-2,3-dihydro-1H-cyclopenteno[c]benzopyran-4-one] are 105%, 106% and 59.2%.
For `Cc1c(OCCCCN2CCN(c3nsc4ccccc34)CC2)ccc2c3c(c(=O)oc12)CCC3` [Compound 12, 7-{4-[4-(3-(1,2-benzisothiazole)-1-piperazinyl)-butoxy]}-6-methyl-2,3-dihydro-1H-cyclopenteno[c]benzopyran-4-one], the inhibition at 10 µM at 5HT2A receptor amounted to 107%; on 5HT1A receptor, 104%; at D2 receptor it was 61.2%.
For `COc1ccccc1N1CCN(CCCCOc2ccc3c4c(c(=O)oc3c2Cl)CCC4)CC1` [Compound 13, 7-{4-[4-(2-methoxyphenyl)piperazin-1-yl]-butoxy}-6-chloro-2,3-dihydro-1H-cyclopenteno[c]benzopyran-4-one] the same measures were 105%, 106% and 59.2%.
For the compound `O=c1oc2cc(OCCCCN3CCC(c4noc5cc(F)ccc45)CC3)c(Cl)cc2c2c1CCC2` [Compound 16, 7-{4-[4-(3-(6-fluoro-benzisoxazole)-1-piperidyl)-butoxy]}-8-chloro-2,3-dihydro-1H-cyclopenteno[c]benzopyran-4-one], the inhibition at 10 µM at 5HT2A receptor is 88.4%; at 5HT1A receptor it was 55.3%; on D2 receptor, 51.5%.
For the compound `COc1ccccc1N1CCN(CCCCOc2cc3oc(=O)c4c(c3cc2Cl)CCC4)CC1` [Compound 17, 7-{4-[4-(2-methoxyphenyl)piperazin-1-yl-butoxy]}-8-chloro-2,3-dihydro-1H-cyclopenteno[c]benzopyran-4-one], the inhibition at 10 µM on 5HT2A receptor was determined as 104%; on 5HT1A receptor, 115%; at D2 receptor, 15.4%.
In the case of `O=c1oc2cc(OCCCCN3CCC(c4noc5cc(F)ccc45)CC3)ccc2c2c1CCCC2` [Compound 18, 3-{4-[4-(3-(6-fluoro-benzisoxazole)-1-piperidyl)-butoxy]}-7,8,9,10-tetrahydrobenzo[c]benzopyran-6-one], the inhibition at 10 µM on 5HT2A receptor came to 114%; at 5HT1A receptor it was 46.6%; at D2 receptor it was 80.6%.
As to `COc1ccccc1N1CCN(CCCCOc2ccc3c4c(c(=O)oc3c2C)CCCC4)CC1` [Compound 20, 3-{4-[4-(2-methoxyphenyl)piperazin-1-yl]-butoxy}-4-methyl-7,8,9,10-tetrahydrobenzo[c]benzopyran-6-one], the results for the inhibition at 10 µM at 5HT2A receptor, at 5HT1A receptor and on D2 receptor were 90.7%, 100% and 66.4%, respectively.
Regarding `O=C1CCc2ccc(OCCCCN3CCN(c4cccc(Cl)c4Cl)CC3)cc2N1` [aripiprazole], the results for the ED50 in the series “in vivo [1]”, in the series on mice of Kunming breed and in the series on KM mice (mice) were 2.4 mg/kg, 0.12 mg/kg and 0.66 mg/kg, respectively. Further, the LD50 in the series “in vivo [2]” turned out to be 93 mg/kg. Further, the “Scoring (value), apomorphine induced clambering” value (“Scoring (value)” below) in the series on KM mice (dosage 0.3 mg/kg) is on record as 4.50 ± 1.51; in the series on KM mice (dosage 1 mg/kg), 1.5 ± 1.08; in the series on KM mice (dosage 3 mg/kg), 2.30 ± 1.57; with KM mice (dosage 10 mg/kg), 0.20 ± 0.42.
For `Cc1cc2c(s1)Nc1ccccc1N=C2N1CCN(C)CC1` [olanzapine], the ED50 with KM mice worked out at 0.11 mg/kg. Further, the “Scoring (value)” value is given as 5.00 ± 1.25 with KM mice (dosage 0.1 mg/kg), 2.10 ± 1.10 in the series on KM mice (dosage 0.3 mg/kg), 1.30 ± 1.25 with KM mice (dosage 1 mg/kg) and 0.30 ± 0.48 in the series with KM mice (dosage 3 mg/kg).
On to `Cc1nc2n(c(=O)c1CCN1CCC(c3noc4cc(F)ccc34)CC1)CCCC2` [risperidone], for which the ED50 in the series with KM mice was 0.015 mg/kg. Also, the “effect on apomorphine induced clambering symptoms (in words)” value with KM mice (compared to the model group) is “effectively improve”. Also, the “Scoring (value)” value in the series on KM mice (dosage 0.01 mg/kg) was found to be 5.20 ± 1.87; in the series with KM mice (dosage 0.03 mg/kg), 2.70 ± 1.77; in the series on KM mice (dosage 0.1 mg/kg), 1.80 ± 1.32; in the series with KM mice (dosage 0.3 mg/kg), 0.20 ± 0.63.

What is called inhibition is the drop in the measured response relative to a control, in per cent. Broadly, the ED50 is the midpoint of the dose-response relation. By LD50 is commonly meant the dose at which mortality reaches 50%. Higher therefore signals lower toxicity.
